4 compounds from ChEMBL document CHEMBL1201862, “PubChem BioAssay data set” (2004) can be followed below.

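Dose response: 5 concentrations. Exposure: 48 h. Format: 96-well plates. Endpoint: linear interpolation; highest concentration if not reached. Abbreviation: GI50, concentration required for 50% inhibition of growth.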 Activity calls are given as the source filed them. No stated cut-off is given here; in the data, active = GI50 up to about 1.1 µM and inactive = higher.

Among the test systems are HCT-15; NCI/ADR-RES; UACC-62; NCI-H23; HCT-116; ACHN; SK-OV-3; SK-MEL-2; NCI-H522; CCRF-CEM; PC-3; TK-10; SK-MEL-5; NCI-H460; MCF7; A549; KM12; COLO 205; Malme-3M.
Test in all cases: NCI-60 cell line screen, 48 h

Take `COC(=O)/C(=C\Nc1cccc(C)n1)S(=O)(=O)c1ccc(C)cc1`: the GI50 with HCT-15 is 45.3 µM; in the assay on NCI/ADR-RES, 76.4 µM (inactive); in the assay on UACC-62, 31.5 µM (inactive); with NCI-H23 it was 40.6 µM (inactive); in the assay with HCT-116 it was 52.2 µM (inactive); with ACHN it was > 100 µM (inactive). In addition, the GI50 in the assay with SK-OV-3 is > 100 µM (inactive); in the assay with SK-MEL-2, 33.4 µM (inactive); in the assay with NCI-H522, 66.4 µM (inactive); in the assay with CCRF-CEM it was 37.8 µM (inactive); with PC-3, 38.8 µM (inactive); in the assay on TK-10, 96.2 µM (inactive). Further, the GI50 with SK-MEL-5 is 36.8 µM (inactive); in the assay with NCI-H460, 61.7 µM (inactive); in the assay on MCF7, 68.2 µM (inactive); in the assay on A549 it was 60 µM (inactive); in the assay on KM12, 35.5 µM (inactive); in the assay with COLO 205, 22.2 µM (inactive). The GI50 with Malme-3M was > 100 µM (inactive).
Regarding `Cc1cccc2cc3c(ccc4ccccc43)c[n+]12`, the GI50 in the assay on HCT-15 is greater than 100 µM; in the assay with NCI/ADR-RES, > 100 µM (inactive); with UACC-62, 23 µM (inactive); in the assay on NCI-H23, 7.6 µM (inactive); with HCT-116, 36.9 µM (inactive); with ACHN it was 65.3 µM (inactive). Moreover, the GI50 with SK-MEL-2 was 20.3 µM (inactive); with NCI-H522, 9.25 µM (inactive); in the assay with CCRF-CEM, 15.5 µM (inactive); in the assay on PC-3, 30.9 µM (inactive); in the assay on TK-10 it was > 100 µM (inactive); in the assay with SK-MEL-5 it was 5.65 µM (inactive). Moreover, the GI50 was 27.2 µM (inactive) in the assay with NCI-H460; 13.5 µM (inactive) in the assay on MCF7; 5.86 µM (inactive) in the assay with A549; 2.75 µM (inactive) in the assay with KM12; 13.3 µM (inactive) in the assay on COLO 205; 1.77 µM (inactive) in the assay on Malme-3M.
Take `CCN1/C(=C/C#C/C(C)=C\c2sc3ccc(Cl)cc3[n+]2CC)Sc2ccc(Cl)cc21`: the GI50 is 4.61 µM in the assay on HCT-15; 15.7 µM (inactive) with NCI/ADR-RES; 3.32 µM (inactive) with UACC-62; 2.57 µM (inactive) with HCT-116; 3.38 µM (inactive) in the assay with ACHN; 5.55 µM (inactive) in the assay on SK-OV-3. The GI50 in the assay with SK-MEL-2 is 1.98 µM (inactive); in the assay with NCI-H522, 1.56 µM (inactive); with CCRF-CEM, 0.389 µM (active); in the assay on PC-3 it was 2.33 µM (inactive); in the assay with TK-10, 4.28 µM (inactive); with SK-MEL-5, 2.09 µM (inactive). The GI50 in the assay with NCI-H460 was 3.02 µM (inactive); with MCF7, 3.73 µM (inactive); in the assay with A549, 3.57 µM (inactive); with KM12, 3.1 µM (inactive); with COLO 205 it was 1.66 µM (inactive); with Malme-3M, 1.85 µM (inactive).
`CC(=O)OC12OC(C)(C3C(=O)N(c4ccccc4)C(=O)C31)N(c1ccccc1)C2=O` (centres undefined): the GI50 is greater than 100 µM with HCT-15; > 100 µM (inactive) with NCI/ADR-RES; > 100 µM (inactive) with UACC-62; > 100 µM (inactive) with NCI-H23; > 100 µM (inactive) with HCT-116; > 100 µM (inactive) with ACHN. For the same compound, the GI50 in the assay with SK-OV-3 is > 100 µM (inactive); with SK-MEL-2, > 100 µM (inactive); in the assay on NCI-H522, > 100 µM (inactive); in the assay with CCRF-CEM, > 100 µM (inactive); with PC-3 it was 69.3 µM (inactive); in the assay on TK-10, > 100 µM (inactive). Also, the GI50 with SK-MEL-5, with NCI-H460, in the assay with MCF7, in the assay on A549, in the assay with KM12 and with COLO 205 was > 100 µM (inactive) each time. Besides, the GI50 with Malme-3M was > 100 µM (inactive).
